Experimental data reported in patent US20250353873A1, “COMPOUNDS AND METHODS FOR MODULATING APOE EXPRESSION” (Ionis Pharmaceuticals, Inc., priority 2024, published 2025).
Strand notation (5' to 3'): a small letter for the sugar, then the base; units joined by * are phosphorothioate-linked, units joined directly phosphodiester-linked; [ ] holds rarer units or linkages, { } end groups; capitals alone tell only the bases. [ms] = mesyl phosphoramidate linkage; k = constrained ethyl (cEt); [5mC] = 5-methylcytosine; d = 2'-deoxy (DNA)

Legend:
human APOE RNA [1] = assay: Dose-dependent inhibition of human APOE RNA in HepG2 cells, electroporation, 50,000 cells per well, RT-PCR normalized to GAPDH (Example 4, Tables 8-10); type: cell-based; details: HepG2, electroporation, 24-hour treatment
Outline: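 Readout is percent APOE RNA versus untreated controls, measured by RT-PCR (primer probe set RTS3073) and normalized to human GAPDH. Modified oligonucleotides were delivered by electroporation at varying doses into HepG2 cells plated at 50,000 per well.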

human APOE RNA [2] = assay: Potency (dose response, ED50) in APOE C57BL/6NTac-Apoeem7250 knock-in mice, 4 weeks (Example 14); type: in vivo
Method: Modified oligonucleotides described above were tested in the APOE C57BL/6NTac-Apoeem7250 knock-in mouse model described above.
APOE C57BL/6NTac-Apoeem7250 knock-in mice were divided into groups of 3-4 mice each. A group of 3-4 mice received a single ICV bolus with PBS as a negative control.
Four weeks post treatment, mice were sacrificed, and RNA was extracted from cortical brain tissue and spinal cord for quantitative real-time RT-PCR analysis of RNA expression of […] using human primer probe set RTS3073 (described herein above). APOE RNA levels were normalized to mouse Ppia. Mouse Ppia was amplified using primer probe set m_cyclo24 (described herein above). Results are presented as percent human APOE RNA relative to the amount of APOE RNA in PBS treated animals, (% control). N.C. indicates values that were not calculated. Each experiment is identified in separate tables below.
The half maximal effective dose (ED50) of each modified oligonucleotide was calculated using GraphPad Prism 10 software (GraphPad Software, San Diego, CA).

human APOE RNA [3] = assay: Duration of action study in APOE C57BL/6NTac-Apoeem7250 knock-in mice (Example 16); type: in vivo; details: 300 μg ICV
Outline: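 Knock-in mice (2-4 per group) received a single ICV bolus of 300 μg oligonucleotide or PBS. At various timepoints, cortex and spinal cord human APOE RNA was measured by RT-qPCR (RTS3073), normalized to mouse Ppia and expressed as % of PBS control.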

1746809 (k[5mC]*dT[ms]kT*dG[ms]kG*dT[ms]dG[ms]dA[ms]dA[ms]dT*d[5mC]*dT*dT*dT*dA[ms]dT*dT[ms]kA*kA*kA; antisense) [Compound 1746809]
APOE RNA (% UTC) (human APOE RNA [1]; 5 nM): 91 % UTC | APOE RNA (% UTC) (human APOE RNA [1]; 33 nM): 98 % UTC | APOE RNA (% UTC) (human APOE RNA [1]; 82 nM): 74 % UTC | APOE RNA (% UTC) (human APOE RNA [1]; 205 nM): 81 % UTC | APOE RNA (% UTC) (human APOE RNA [1]; 512 nM): 54 % UTC | APOE RNA (% UTC) (human APOE RNA [1]; 1,280 nM): 35 % UTC | APOE RNA (% UTC) (human APOE RNA [1]; 3,200 nM): 33 % UTC | APOE RNA (% UTC) (human APOE RNA [1]; 8,000 nM): 23 % UTC | APOE RNA (% UTC) (human APOE RNA [1]; 20,000 nM): 14 % UTC | IC50 (human APOE RNA [1]): 840 nM | APOE RNA (% control) Cortex (human APOE RNA [2]; cortex, ICV dose 10 μg): 98 % control | APOE RNA (% control) Cortex (human APOE RNA [2]; cortex, ICV dose 30 μg): 89 % control | APOE RNA (% control) Cortex (human APOE RNA [2]; cortex, ICV dose 100 μg): 79 % control | APOE RNA (% control) Cortex (human APOE RNA [2]; cortex, ICV dose 300 μg): 57 % control | APOE RNA (% control) Cortex (human APOE RNA [2]; cortex, ICV dose 700 μg): 41 % control | ED 50 (μg) Cortex (human APOE RNA [2]; cortex, single ICV bolus, GraphPad Prism 10): 446.6 µg | APOE RNA (% control) Spinal Cord (human APOE RNA [2]; spinal cord, ICV dose 10 μg): 105 % control | APOE RNA (% control) Spinal Cord (human APOE RNA [2]; spinal cord, ICV dose 30 μg): 92 % control | APOE RNA (% control) Spinal Cord (human APOE RNA [2]; spinal cord, ICV dose 100 μg): 59 % control | APOE RNA (% control) Spinal Cord (human APOE RNA [2]; spinal cord, ICV dose 300 μg): 48 % control | APOE RNA (% control) Spinal Cord (human APOE RNA [2]; spinal cord, ICV dose 700 μg): 64 % control | ED 50 (μg) Spinal Cord (human APOE RNA [2]; spinal cord, single ICV bolus, GraphPad Prism 10): 652.7 µg | APOE RNA (% control) Cortex (human APOE RNA [3]; 112 days post-dose): 55 % control | APOE RNA (% control) Cortex (human APOE RNA [3]; 140 days post-dose): 66 % control | APOE RNA (% control) Spinal Cord (human APOE RNA [3]; 112 days post-dose): 86 % control | APOE RNA (% control) Spinal Cord (human APOE RNA [3]; 140 days post-dose): 107 % control
